System: subjects with metastatic or surgically unresectable urothelial cancer
Settings: all-causality; 8 mg continuous, n = 99

COc1cc(OC)cc(N(CCNC(C)C)c2ccc3ncc(-c4cnn(C)c4)nc3c2)c1 [erdafitinib, N-(3,5-dimethoxy-phenyl)-N′-(1-methylethyl)-N-[3-(1-methyl-1H-pyrazol-4-yl)quinoxalin-6-yl]ethane-1,2-diamine]
Constipation, grade ≥ 3: 1 no. | Decreased appetite, any grade: 38 no. | Decreased appetite, grade 1: 18 no. | Decreased appetite, grade 2: 20 no. | Decreased appetite, grade ≥ 3: 0 no. | Diarrhea, any grade: 50 no. | Diarrhea, grade 1: 31 no. | Diarrhea, grade 2: 15 no. | Diarrhea, grade ≥ 3: 4 no. | Dry eye, any grade: 19 no. | Dry eye, grade 1: 14 no. | Dry eye, grade 2: 4 no. | Dry eye, grade ≥ 3: 1 no. | Dry mouth, any grade: 45 no. | Dry mouth, grade 1: 34 no. | Dry mouth, grade 2: 11 no. | Dry mouth, grade ≥ 3: 0 no. | Dry skin, any grade: 32 no. | Dry skin, grade 1: 24 no. | Dry skin, grade 2: 8 no. | Dry skin, grade ≥ 3: 0 no. | Dysgeusia, any grade: 37 no. | Dysgeusia, grade 1: 23 no. | Dysgeusia, grade 2: 13 no. | Dysgeusia, grade ≥ 3: 1 no. | Dyspepsia, any grade: 11 no. | Dyspepsia, grade 1: 10 no. | Dyspepsia, grade 2: 1 no. | Dyspepsia, grade ≥ 3: 0 no. | Dyspnea, any grade: 8 no. | Dyspnea, grade 1: 4 no. | Dyspnea, grade 2: 2 no. | Dyspnea, grade ≥ 3: 2 no. | Fatigue, any grade: 32 no. | Fatigue, grade 1: 12 no. | Fatigue, grade 2: 18 no. | Fatigue, grade ≥ 3: 2 no. | Hand-foot syndrome, any grade: 23 no. | Hand-foot syndrome, grade 1: 6 no. | Hand-foot syndrome, grade 2: 12 no. | Hand-foot syndrome, grade ≥ 3: 5 no. | Hematuria, any grade: 10 no. | Hematuria, grade 1: 7 no. | Hematuria, grade 2: 1 no. | Hematuria, grade ≥ 3: 2 no. | Hyperphosphatemia, any grade: 76 no. | Hyperphosphatemia, grade 1: 53 no. | Hyperphosphatemia, grade 2: 21 no. | Hyperphosphatemia, grade ≥ 3: 2 no. | Hypomagnesemia, any grade: 10 no. | Hypomagnesemia, grade 1: 9 no. | Hypomagnesemia, grade 2: 1 no. | Hypomagnesemia, grade ≥ 3: 0 no. | Hyponatremia, any grade: 12 no. | Hyponatremia, grade 1: 1 no. | Hyponatremia, grade 2: 0 no. | Hyponatremia, grade ≥ 3: 11 no. | Insomnia, any grade: 7 no. | Insomnia, grade 1: 4 no. | Insomnia, grade 2: 3 no. | Insomnia, grade ≥ 3: 0 no. | Lacrimation increased, any grade: 11 no. | Lacrimation increased, grade 1: 8 no. | Lacrimation increased, grade 2: 3 no. | Lacrimation increased, grade ≥ 3: 0 no. | Nail dystrophy, any grade: 16 no. | Nail dystrophy, grade 1: 5 no. | Nail dystrophy, grade 2: 5 no. | Nail dystrophy, grade ≥ 3: 6 no. | Nausea, any grade: 20 no. | Nausea, grade 1: 13 no. | Nausea, grade 2: 6 no. | Nausea, grade ≥ 3: 1 no. | Onycholysis, any grade: 18 no. | Onycholysis, grade 1: 6 no. | Onycholysis, grade 2: 10 no. | Onycholysis, grade ≥ 3: 2 no. | Onychomadesis, any grade: 7 no. | Onychomadesis, grade 1: 2 no. | Onychomadesis, grade 2: 5 no. | Onychomadesis, grade ≥ 3: 0 no. | Oropharyngeal pain, any grade: 10 no. | Oropharyngeal pain, grade 1: 8 no. | Oropharyngeal pain, grade 2: 1 no. | Oropharyngeal pain, grade ≥ 3: 1 no. | Pain in extremity, any grade: 12 no.

Reference: US12691112B2, “FGFR tyrosine kinase inhibitors for the treatment of urothelial carcinoma” (Janssen Pharmaceutica NV, priority 2019, dated 2026)
